Results published in article PMC10534827 (Pharmaceuticals, 2023).
Where two headings read alike, the source gives them in different places.

Key:
[1] = tested on: Neuro-2a cells; assay: MTT cytotoxicity, Neuro-2a; assay type: cell-based, murine; conditions: Mus musculus, N2a, read-out: Neuro-2a IC50
[2] = tested on: CCL-1 cells; assay: MTT cytotoxicity, CCL-1 normal fibroblasts; assay type: cell-based, murine; conditions: Mus musculus, Fibroblast, read-out: CCL-1 IC50
[3] = molecular target: T1, butyrylcholinesterase from equine serum (Equus caballus, UniProt P81908); assay: biochemical; conditions: for inhibition at 1000 µM: read-out: Activity [%] (inhibition percentage of BChE)
T1 construct: butyrylcholinesterase from equine serum; purchased Sigma-Aldrich, Hamburg, Germany; host or cells: equine serum
Procedure: (§1) AChE and BChE inhibitory activity was measured using the microplate assay described by Ellman et al. [68] with the modifications added by López et al. [36]. The compounds were tested at concentrations between 10^−3 and 10^−8 M. First, all compounds were dissolved in 1% DMSO in a concentration of 1 mg/mL.
(§2) Incubation of the plates was performed at room temperature for 30 min. Then, 100 μL of substrate solution were added to start the enzymatic reaction. […] Enzyme activity was calculated as an inhibition percentage compared to an assay including buffer instead of an inhibitor. […] All data were analyzed with the software package Prism 3 (Graph Pad Inc., San Diego, CA, USA).

[4] = tested on: SH-SY5Y cells; assay: MTT cytotoxicity, SH-SY5Y; assay type: cell-based, human; conditions: Homo sapiens, SH-SY5Y, read-out: SH-SY5Y IC50
[5] = molecular target: T2, Acetylcholinesterase from Electrophorus electricus (Electrophorus electricus, UniProt O42275); assay: biochemical; assay type: biochemical; conditions: for inhibition at 1000 µM: 1 mM solution of the tested compound, read-out: Activity [%] (inhibition percentage of AChE); for IC50: mean ± SD of three experiments, read-out: AChE IC50
T2 construct: purchased Sigma-Aldrich, Hamburg, Germany
Procedure: as §1, §2

[6] = Lipid peroxidation in linoleic acid system, FTC method; conditions: 10 mM compound, 500 nm
Procedure: The antioxidant activity of studied compounds against lipid peroxidation was measured through ammonium thiocyanate assay as described by Takao et al. [66] with some modifications. […] A 10 μL aliquot of the reaction solution was then added to 200 μL of 70% (v/v) ethanol and 10 μL of 30% (w/v) ammonium thiocyanate. […] Aliquots were assayed every 24 h until the day after the absorbance of the control solution (without compound) reached maximum value. BHT (10 mM) was used as positive control.

[7] = 1 mM solution of the tested compound
[8] = mean ± SD of three experiments, read-out: BChE IC50

T2 sequence (O42275 24-633): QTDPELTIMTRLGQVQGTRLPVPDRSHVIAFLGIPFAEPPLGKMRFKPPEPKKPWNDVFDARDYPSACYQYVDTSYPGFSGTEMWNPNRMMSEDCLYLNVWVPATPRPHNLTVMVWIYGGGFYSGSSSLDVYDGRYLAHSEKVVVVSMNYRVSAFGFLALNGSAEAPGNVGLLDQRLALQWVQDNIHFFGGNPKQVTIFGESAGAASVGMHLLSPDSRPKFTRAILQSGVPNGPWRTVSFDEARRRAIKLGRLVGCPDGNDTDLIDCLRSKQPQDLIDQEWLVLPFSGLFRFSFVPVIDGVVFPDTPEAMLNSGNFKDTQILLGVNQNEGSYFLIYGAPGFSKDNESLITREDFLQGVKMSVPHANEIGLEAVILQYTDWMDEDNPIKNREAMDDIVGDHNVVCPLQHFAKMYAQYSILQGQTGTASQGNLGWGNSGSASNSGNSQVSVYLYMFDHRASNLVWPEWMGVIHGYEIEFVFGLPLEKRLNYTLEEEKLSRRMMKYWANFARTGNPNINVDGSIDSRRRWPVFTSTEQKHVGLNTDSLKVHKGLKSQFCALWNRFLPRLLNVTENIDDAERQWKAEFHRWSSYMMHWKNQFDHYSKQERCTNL
T1 sequence (P81908 whole entry): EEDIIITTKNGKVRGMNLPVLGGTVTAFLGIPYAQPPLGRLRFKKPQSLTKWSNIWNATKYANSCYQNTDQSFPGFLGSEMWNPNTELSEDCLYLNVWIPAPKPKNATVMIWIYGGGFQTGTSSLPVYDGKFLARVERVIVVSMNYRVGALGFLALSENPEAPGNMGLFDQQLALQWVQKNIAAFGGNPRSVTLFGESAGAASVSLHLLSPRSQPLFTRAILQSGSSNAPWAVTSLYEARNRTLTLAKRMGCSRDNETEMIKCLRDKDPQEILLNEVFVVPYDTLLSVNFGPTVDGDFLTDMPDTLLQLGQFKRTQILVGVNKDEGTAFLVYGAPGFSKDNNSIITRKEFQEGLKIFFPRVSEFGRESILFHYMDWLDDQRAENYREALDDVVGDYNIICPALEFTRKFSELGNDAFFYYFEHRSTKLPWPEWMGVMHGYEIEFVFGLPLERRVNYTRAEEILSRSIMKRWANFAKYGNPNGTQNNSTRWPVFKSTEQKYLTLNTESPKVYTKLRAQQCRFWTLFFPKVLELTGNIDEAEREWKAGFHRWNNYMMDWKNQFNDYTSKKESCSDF

Structure (SMILES) | IC50 ([1]; MTT, 72 h exposure) | IC50 ([2]; MTT, 72 h exposure) | inhibition at 1000 µM [3, 7] | IC50 [3, 8] | IC50 ([4]; MTT, 72 h exposure) | inhibition at 1000 µM [5] | IC50 [5] | also measured
O=C(N/N=C/c1ccc(O)cc1)C1CCN(Cc2ccccc2)C1 (stereo not shown) [3e, 1-benzyl-N’-[(E)-(4-hydroxyphenyl)methylidene]pyrrolidine-3-carbohydrazide] | > 300 µM | > 300 µM | 12.4% | > 1 mM | 170 ± 10.6 µM | 3.84% | > 1 mM | AChE inhibitory activity in words [5]: practically inactive
O=C(N/N=C/c1ccc(O)cc1O)C1CCN(Cc2ccccc2)C1 (stereo not shown) [3f, 1-benzyl-N’-[(E)-(2,4-dihydroxyphenyl)methylidene]pyrrolidine-3-carbohydrazide] | 12.5 ± 2.4 µM | 150 ± 11.2 µM | 57.2% | 0.709 ± 0.0413 mM | 35.8 ± 5.5 µM | 64.1% | 0.55 ± 0.0371 mM | SI AChE ([5]; IC50(BChE)/IC50(AChE)): 1.28
O=C(N/N=C/c1ccc(O)c(O)c1)C1CCN(Cc2ccccc2)C1 (stereo not shown) [3g, 1-benzyl-N’-[(E)-(3,4-dihydroxyphenyl)methylidene]pyrrolidine-3-carbohydrazide] | 110 ± 9.1 µM | > 300 µM | 28.2% | > 1 mM | > 300 µM | 2.74% | > 1 mM | AChE inhibitory activity in words [5]: practically inactive
O=C(N/N=C/c1c(O)cc(O)cc1O)C1CCN(Cc2ccccc2)C1 (stereo not shown) [3h, 1-benzyl-N’-[(E)-(2,4,6-trihydroxyphenyl)methylidene]pyrrolidine-3-carbohydrazide] | > 300 µM | > 300 µM | 76.5% | 0.179 ± 0.0115 mM | > 300 µM | 73.3% | 0.351 ± 0.0179 mM | SI BChE ([3]; IC50(AChE)/IC50(BChE)): 1.96
COc1ccc2[nH]cc(/C=N/NC(=O)CNC(=O)OC(C)(C)C)c2c1 [3j] | > 300 µM | > 300 µM | 17.4% | > 1 mM | 150 ± 12.3 µM |  | > 1 mM | 
COc1ccc2c(c1)c(/C=N/NC(=O)CNC(=O)OC(C)(C)C)cn2C [3k] | > 300 µM | > 300 µM | 30.3% | > 1 mM | 131 ± 11.8 µM | 3.26% | > 1 mM | 
Cn1cc(/C=N/NC(=O)CNC(=O)OC(C)(C)C)c2ccccc21 [3l, tert-butyl(2-{(2E)-2-[(1-methyl-1H-indol-3-yl)methylidene]hydrazinyl}-2-oxoethyl)carbamate] | > 300 µM | > 300 µM | 39.1% | > 1 mM | 107 ± 8.9 µM |  | > 1 mM | 
COc1ccc(/C=N/NC(=O)c2c[nH]c3ccccc23)cc1OC [3o, N’-[(E)-(3,4-dimethoxyphenyl)methylidene]-1H-indole-3-carbohydrazide] | 126 ± 10.7 µM | > 300 µM |  | > 1 mM | 70 ± 7.2 µM |  | > 1 mM | 
COc1ccc(/C=N/NC(=O)Cc2c[nH]c3ccccc23)cc1OC [3p, N’-[(E)-(3,4-dimethoxyphenyl)methylidene]-2-(1H-indol-3-yl)acetohydrazide] | 116 ± 12.8 µM | > 300 µM | 24% | > 1 mM | 87.4 ± 7.7 µM |  | > 1 mM | 
COc1cc2c(cc1OC)C(=O)C(CC1CCN(Cc3ccccc3)CC1)C2 (stereo not shown) [Donepezil, 1-Benzyl-4-[(5,6-dimethoxy-1-indanon-2-yl)methyl]piperidine, reference compound] |  |  |  |  |  |  |  | inhibition at 1000 µM [3]: 69.1%
COc1ccc2c3c1O[C@H]1C[C@@H](O)C=C[C@@]31CCN(C)C2 [Galanthamine, reference compound] |  |  |  |  |  |  |  | IC50 ([1]; 72 h): > 300 µM; IC50 ([2]; 72 h): > 300 µM; inhibition at 1000 µM [3]: 85.8%; IC50 ([4]; 72 h): > 300 µM
COc1ccc2[nH]cc(CCNC(C)=O)c2c1 [Melatonin, reference compound] |  |  |  |  |  | 1.24% | > 1 mM | IC50 [3]: > 1 mM; inhibition at 1000 µM [3]: 4.21 ± 0.88%; Absorbance Day 1 ([6]; Day 1): 0.75 ± 0.07; Absorbance Day 2 ([6]; Day 2): 0.80 ± 0.09; Absorbance Day 3 ([6]; Day 3): 0.89 ± 0.05; Absorbance Day 4 ([6]; Day 4): 0.89 ± 0.02; Absorbance Day 5 ([6]; Day 5): 0.94 ± 0.01
